Measured values as given in patent publication US20060093628A1, “Protein aggregate magnesium-ammonium phospholinoleate-palmitoleate anhydride immonomodulator, its production process and formulation” (priority 2004, published 2006).

Experiments:
[1] = test system: parvovirus and distemper virus; experiment: Treatment of dogs carrying parvovirus and distemper virus; type: in vivo
From the text: a) Antiviral properties through immune response modulation.

plasmacytoma = experiment: Subcutaneously inoculated plasmacytoma in Balb/c mice; type: in vivo; conditions: 5.0 mg/kg intraperitoneal, 3 doses per week, 7 weeks
From the text: (§1) b) Antitumoral properties through immune response modulation.

[2] = test system: spontaneous mammary carcinoma; experiment: Transplanted spontaneous mammary carcinoma in WAB/Not mice; type: in vivo; conditions: 5.0 mg/kg intraperitoneal, 3 doses per week, 7 weeks
From the text: as §1

Walker 256 tumoral cells [3] = experiment: Walker 256 tumor in female Wistar rats; type: in vivo; conditions: daily subcutaneous doses of 0.5 mg/kg
Ehrlich ascitic tumor = Ehrlich ascitic tumor in Balb/c mice; type: in vivo; conditions: 5.0 mg/kg subcutaneous for 7 days
Procedure: Treatment with doses of 5.0 mg/kg of the compound of the present invention, subcutaneously administered for a period of 7 days to Balb/c mice which had been intraperitoneally inoculated with Ehrlich ascitic tumor inhibited 50% of the tumoral growth and increased by 50% the survival of the animals.

Walker 256 tumoral cells [4] = experiment: Walker 256 tumor in gamma-irradiated immunodepressed Wistar rats; type: in vivo; conditions: rats exposed to 4 Gy gamma radiation, subcutaneous administration
From the text: c) Immunomodulatory properties.

[5] = test system: granulocyte-macrophage precursor cells (CFU-GM); experiment: Granulocyte-macrophage precursor cells (CFU-GM) in mice with Ehrlich ascitic tumor; type: in vivo, Balb/c mice
[6] = test system: granulocyte-macrophage precursor cells in the bone marrow; experiment: In vitro growth and differentiation of bone marrow granulocyte-macrophage precursor cells; type: cell-based; conditions: bone marrow from normal donor Balb/c mice
Lysteria monocytogenes [7] = experiment: Lethal Lysteria monocytogenes infection in Balb/c mice; type: in vivo
Lysteria monocytogenes [8] = experiment: In vitro antibacterial activity; type: cell-based
[9] = test system: lymphocytes and natural killer (NK) cells; experiment: Functional ability of immunocompetent cells in mice with Ehrlich ascitic tumor; type: in vivo, Balb/c mice; conditions: 5.0 mg/kg for 7 days
Procedure: (§2) Treatment of Balb/c mice, inoculated with Ehrlich ascitic tumor, with 5.0 mg/kg of the compound of the present invention for a period of 7 days was also able to modulate the functional ability of mature immunocompetent cells, supplying additional evidence about the action mechanisms of the compound. This treatment protocol stimulated the proliferative ability of lymphocytes and the cytotoxicity mediated by natural killer (NK) cells.

[10] = test system: cytokines (IL-2, IFN, IL-4, IL-10); experiment: Cytokines in ConA-stimulated splenic cell cultures from mice with Ehrlich ascitic tumor; type: in vivo, Balb/c mice; conditions: 5.0 mg/kg for 7 days
Procedure: as §2

cytokines (IL-2, IFN) = experiment: Cytokines in spleen cell cultures from mice infected with L. monocytogenes; type: in vivo, Balb/c mice; conditions: pre-treatment with 5.0 mg/kg; culture of spleen cells
Procedure: Levels of the same cytokines found in Balb/c mice infected with L. monocytogenes and subjected to pre-treatment with 5.0 mg/kg of the compound of the present invention supplied additional information about its biological activity. The increase in production of IL-2 e IFN- by the culture of spleen cells from these animals indicate a modulation of the inflammatory-like response, which is fundamental for eradication of the infection.

[11] = Toxicity in mice, single doses; type: in vivo
From the text: (§3) e) In vivo toxicologic properties.

[12] = Toxicity in tufted capuchin monkey, 30 days; type: in vivo, tufted capuchin monkey (Cebus apella); conditions: doses up to 30 mg/kg
From the text: as §3

[13] = Toxicity in Wistar rats, 90 days; type: in vivo; conditions: doses up to 100 mg/kg
From the text: as §3

[14] = Immunotoxic properties in tufted capuchin monkey; set-up: species or system tufted capuchin monkey (Cebus apella); conditions: in vivo
Procedure: f) Immunotoxic properties. […] The following organs were analyzed: bone marrow, spleen, lymph nodes, tonsils, and renal gland e Peyer's patch.
The spleen presented an increase of secondary follicles in the white pulp.
However, these cell alterations, found in the anatomopathological examination of the spleen from animals treated with the compound of the present invention, cannot be considered pathological in character; rather, they are due to immune system modulation caused by the use of the compound of the present invention.

[15] = test system: 53 tumor cell cultures representing 8 distinct tumor types and leukemia
From the text: Cytotoxicity of the compound of the present invention was studied in the range of 10^−4 to 10^−8 M in 53 tumor cell cultures representing 8 distinct tumor types (lung, colon, central nervous system, melanoma, ovary, kidney, prostate and mammary) and leukemia.

[16] = rat, in vivo, ip, 750 mg/kg
Procedure: The bioavailability of the compound of the present invention was evaluated in Wistar rats by administering a single intraperitoneal dose of 750 mg/kg.

[17] = splenic cells stimulated by ConA

## protein aggregate of ammonium and magnesium phospholinoleate-palmitoleate anhydride [compound of the present invention]
[1]; blood of treated dogs vs infected controls treated with saline only
  white blood cell count: significant increase
[1]; dogs carrying parvovirus and distemper virus
  recovery rate: higher recovery rate
plasmacytoma
  increase in survival: 50%
  tumoral growth rate: significant decrease
[2]
  increase in survival: 50%
  tumoral growth rate: significant decrease
Walker 256 tumoral cells [3]
  animals with tumoral regression: 50%
Ehrlich ascitic tumor
  increase in survival: 50%
  inhibition of tumoral growth: 50%
Walker 256 tumoral cells [4]
  response to treatment: did not respond
[5]; 5.0 mg/kg for 7 days
  CFU-GM count in the spleen and splenomegalia: significant reduction
[5]; 5.0 mg/kg for 7 days before or after inoculation
  myelopoiesis modulation: particularly efficient
[5]; 0.5 to 5.0 mg/kg subcutaneous for 7 days
  number of granulocyte-macrophage precursor cells in the bone marrow (CFU-GM): dose-dependent increase
[6]
  in vitro effects on growth and differentiation of granulocyte-macrophage precursor cells: did not present in vitro effects
Lysteria monocytogenes [7]; pre-treatment 0.5 mg/kg subcutaneous for 7 days
  mice protected against lethal infection: 30%
Lysteria monocytogenes [7]; pre-treatment 5.0 mg/kg subcutaneous for 7 days
  mice protected against lethal infection: 40%
Lysteria monocytogenes [7]; pre-treatment subcutaneous for 7 days
  myeloprotection: promoted myeloprotection
Lysteria monocytogenes [8]
  in vitro antibacterial activity: does not display in vitro antibacterial activity
[9]
  cytotoxicity mediated by natural killer (NK) cells: stimulated
  proliferative ability of lymphocytes: stimulated
[10]
  interleukin-4 (IL-4) levels: No alteration
[10]; mice with tumors
  production of interleukin-10 (IL-10): significantly reduced
[10]; [17]
  gamma-interferon (IFN-): significant increase
  interleukin-2 (IL-2): significant increase
Cytokines (IL-2, IFN)
  production of IFN-: increase
  production of IL-2: increase
[11]; single doses up to 2000 mg/kg
  toxic effects: No toxic effects
[11]; stated jointly for the mouse, monkey and rat studies, treated vs control animals
  hematological, biochemical, physiological and anatomopathological parameters: No significant variation
[12]
  toxic effects: No toxic effects
[13]
  toxic effects: No toxic effects
[14]
  granulocytic series in the bone marrow: slight activation
  hematocrit and hemoglobin: minor decrease
  immunotoxic properties: No immunotoxic properties
  lymphocyte population: small increase
  red pulp of the spleen, anatomopathological examination: Erytrophagocytosis was visible
  secondary follicles in the white pulp of the spleen: increase
  total leucocytes, particularly polymorphonuclear neutrophils: increase
[15]
  cytotoxicity for tumor cells: did not display cytotoxicity
[16]
  plasma t1/2: about 2 h
